Assays:
[1] = biological target: T1, CB1 (Homo sapiens, UniProt P21554); assay: CB1 Gαq16-coupled intracellular calcium mobilization assay in CHO-K1 cells; format: cell-based
[2] = In vivo evaluation of brain penetration; set-up: species or system rats; settings: 10 mg/kg; for bioavailable with oral or intra-peritoneal dosing: oral or ip
[3] = biological target: T1, CB1; assay: Radioligand displacement of [3H]CP55940 at CB1; format: binding; settings: Ki vs CP55940

T1 sequence (P21554 whole entry): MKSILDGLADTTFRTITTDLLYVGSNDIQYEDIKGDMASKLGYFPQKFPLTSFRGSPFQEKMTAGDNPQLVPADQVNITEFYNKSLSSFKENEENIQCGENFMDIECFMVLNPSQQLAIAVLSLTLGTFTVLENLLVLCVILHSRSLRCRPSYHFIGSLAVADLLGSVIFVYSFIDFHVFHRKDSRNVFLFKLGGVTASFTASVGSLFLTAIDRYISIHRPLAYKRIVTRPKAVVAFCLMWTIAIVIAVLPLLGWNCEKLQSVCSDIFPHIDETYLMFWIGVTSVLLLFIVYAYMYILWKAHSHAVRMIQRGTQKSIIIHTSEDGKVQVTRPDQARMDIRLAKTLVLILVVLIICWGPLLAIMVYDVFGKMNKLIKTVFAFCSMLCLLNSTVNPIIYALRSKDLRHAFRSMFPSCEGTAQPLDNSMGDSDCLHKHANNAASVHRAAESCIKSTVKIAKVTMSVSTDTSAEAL

| SMILES | Kb [1] | other results |
| --- | --- | --- |
| CCOC(=O)N1CCC(NC(=O)c2nn(-c3ccc(Cl)cc3Cl)c(-c3ccc(Cl)cc3)c2C)CC1 [Compound 18l, Ethyl-4-[5-(4-chlorophenyl)-1-(2,4-dichlorophenyl)-4-methyl-1H-pyrazole-3-amido]piperidine-1-carboxylate] | 0.003 µM |  |
| Cc1c(C(=O)N2CCC(C(=O)O)(c3ccccc3)CC2)nn(-c2ccc(Cl)cc2Cl)c1-c1ccc(Cl)cc1 [Compound 10, 1-{[5-(4-Chlorophenyl)-1-(2,4-dichlorophenyl)-4-methyl-1H-pyrazol-3-yl]carbonyl}-4-phenylpiperidine-4-carboxylic acid] | 1.17 µM |  |
| Cc1c(C(=O)NC2CCN(S(C)(=O)=O)CC2)nn(-c2ccc(Cl)cc2Cl)c1-c1ccc(Cl)cc1 [Compound 18d, 5-(4-Chlorophenyl)-1-(2,4-dichlorophenyl)-N-(1-methanesulfonylpiperidin-4-yl)-4-methyl-1H-pyrazole-3-carboxamide] | 0.269 µM |  |
| Cc1c(C(=O)N[C@@H]2CCCNC2)nn(-c2ccc(Cl)cc2Cl)c1-c1ccc(Cl)cc1 [Compound 20b, 5-(4-Chlorophenyl)-1-(2,4-dichlorophenyl)-4-methyl-N-[(3R)-piperidin-3-yl]-1H-pyrazole-3-carboxamide] | 1.17 µM |  |
| Cc1c(C(=O)N2CCC(NC(=O)NC(C)(C)C)(c3ccccc3)CC2)nn(-c2ccc(Cl)cc2Cl)c1-c1ccc(Cl)cc1 [Compound 17a, 3-tert-Butyl-1-(1-{[5-(4-chlorophenyl)-1-(2,4-dichlorophenyl)-4-methyl-1H-pyrazol-3-yl]carbonyl}-4-phenylpiperidin-4-yl)urea] |  | Brain Conc. ([2]; Oral, 60 min, unperfused brain): below the lower limit of quantitation; bioavailable with oral or intra-peritoneal dosing [2]: bioavailable |
| CCCCNC(=O)N1CCC[C@@H](NC(=O)c2nn(-c3ccc(Cl)cc3Cl)c(-c3ccc(Cl)cc3)c2C)C1 [Compound 20h, (3R)-1-N-Butyl-3-C-5-(4-chlorophenyl)-1-(2,4-dichlorophenyl)-4-methyl-1H-pyrazole-3-piperidine-1,3-diamido] | 0.118 µM |  |
| Cc1c(C(=O)N[C@@H]2CCCN(C(=O)NC(C)(C)C)C2)nn(-c2ccc(Cl)cc2Cl)c1-c1ccc(Cl)cc1 [Compound 20i, (3R)-1-N-tert-Butyl-3-C-5-(4-chlorophenyl)-1-(2,4-dichlorophenyl)-4-methyl-1H-pyrazole-3-piperidine-1,3-diamido] | 0.268 µM |  |
| Cc1c(C(=O)NCC2CCC(CNC(=O)NC(C)C)CC2)nn(-c2ccc(Cl)cc2Cl)c1-c1ccc(Cl)cc1 (stereo not drawn) [Compound 21b, 5-(4-Chlorophenyl)-1-(2,4-dichlorophenyl)-4-methyl-N-{[4-({[(propan-2-yl)carbamoyl]amino}methyl)cyclohexyl]methyl}-1H-pyrazole-3-carboxamide] | 0.351 µM |  |
| Cc1c(C(=O)N[C@@H]2CCCN(S(C)(=O)=O)C2)nn(-c2ccc(Cl)cc2Cl)c1-c1ccc(Cl)cc1 [Compound 20d, 5-(4-Chlorophenyl)-1-(2,4-dichlorophenyl)-N-[(3R)-1-methanesulfonylpiperidin-3-yl]-4-methyl-1H-pyrazole-3-carboxamide] | 0.007 µM | selectivity for CB1 versus CB2 [3]: over 100 fold; potency relative to sulfonamide 7 ([1]; Ke CB1, fold more potent than 7): 16 fold |
| Cc1c(C(=O)N[C@H]2CCCN(C(=O)NC(C)C)C2)nn(-c2ccc(Cl)cc2Cl)c1-c1ccc(Cl)cc1 [Compound 19f, (3S)-3-C-5-(4-Chlorophenyl)-1-(2,4-dichlorophenyl)-4-methyl-1H-pyrazole-3-1-N-(propan-2-yl)piperidine-1,3-diamido] | 0.265 µM |  |
| CC(=O)N1CCC[C@@H](NC(=O)c2nn(-c3ccc(Cl)cc3Cl)c(-c3ccc(Cl)cc3)c2C)C1 [Compound 20c, N-[(3R)-1-Acetylpiperidin-3-yl]-5-(4-chlorophenyl)-1-(2,4-dichlorophenyl)-4-methyl-1H-pyrazole-3-carboxamide] | 0.53 µM |  |
| CC(=O)N1CCC(NC(=O)c2nn(-c3ccc(Cl)cc3Cl)c(-c3ccc(Cl)cc3)c2C)CC1 [Compound 18c, N-(1-Acetylpiperidin-4-yl)-5-(4-chlorophenyl)-1-(2,4-dichlorophenyl)-4-methyl-1H-pyrazole-3-carboxamide] | 0.195 µM |  |
| Cc1c(C(=O)N[C@H]2CCCN(C(=O)OC(C)(C)C)C2)nn(-c2ccc(Cl)cc2Cl)c1-c1ccc(Cl)cc1 [Compound 19a, tert-Butyl-(3S)-3-[5-(4-chlorophenyl)-1-(2,4-dichlorophenyl)-4-methyl-1H-pyrazole-3-amido]piperidine-1-carboxylate] | 0.842 µM |  |
| Cc1c(C(=O)NC2CCN(C(=O)OC(C)(C)C)CC2)nn(-c2ccc(Cl)cc2Cl)c1-c1ccc(Cl)cc1 [Compound 18a, tert-Butyl-4-[5-(4-chlorophenyl)-1-(2,4-dichlorophenyl)-4-methyl-1H-pyrazole-3-amido]piperidine-1-carboxylate] |  | bioavailable with oral or intra-peritoneal dosing [2]: bioavailable |
| Cc1c(C(=O)NC2CCNCC2)nn(-c2ccc(Cl)cc2Cl)c1-c1ccc(Cl)cc1 [Compound 18b, 5-(4-Chlorophenyl)-1-(2,4-dichlorophenyl)-4-methyl-N-(piperidin-4-yl)-1H-pyrazole-3-carboxamide] | 5.11 µM |  |
| CCCNC(=O)NCC1CCC(CNC(=O)c2nn(-c3ccc(Cl)cc3Cl)c(-c3ccc(Cl)cc3)c2C)CC1 (stereo not drawn) [Compound 21c, 5-(4-Chlorophenyl)-1-(2,4-dichlorophenyl)-4-methyl-N-[(4-{[(propylcarbamoyl)amino]methyl}cyclohexyl)methyl]-1H-pyrazole-3-carboxamide] | 0.486 µM |  |
| Cc1c(C(=O)NC2CCN(S(N)(=O)=O)CC2)nn(-c2ccc(Cl)cc2Cl)c1-c1ccc(Cl)cc1 [Compound 18e, 5-(4-Chlorophenyl)-1-(2,4-dichlorophenyl)-4-methyl-N-(1-sulfamoylpiperidin-4-yl)-1H-pyrazole-3-carboxamide] | 0.592 µM |  |
| CCCCNC(=O)N1CCC[C@H](NC(=O)c2nn(-c3ccc(Cl)cc3Cl)c(-c3ccc(Cl)cc3)c2C)C1 [Compound 19h, (3S)-1-N-Butyl-3-C-5-(4-chlorophenyl)-1-(2,4-dichlorophenyl)-4-methyl-1H-pyrazole-3-piperidine-1,3-diamido] | 0.23 µM |  |
| Cc1c(C(=O)NCC2CCC(CNC(=O)NC(C)(C)C)CC2)nn(-c2ccc(Cl)cc2Cl)c1-c1ccc(Cl)cc1 (stereo not drawn) [Compound 21e, N-[(4-{[(tert-Butylcarbamoyl)amino]methyl}cyclohexyl)methyl]-5-(4-chlorophenyl)-1-(2,4-dichlorophenyl)-4-methyl-1H-pyrazole-3-carboxamide] | 0.15 µM |  |
| CCCCNC(=O)NCC1CCC(CNC(=O)c2nn(-c3ccc(Cl)cc3Cl)c(-c3ccc(Cl)cc3)c2C)CC1 (stereo not drawn) [Compound 21d, N-[(4-{[(Butylcarbamoyl)amino]methyl}cyclohexyl)methyl]-5-(4-chlorophenyl)-1-(2,4-dichlorophenyl)-4-methyl-1H-pyrazole-3-carboxamide] | 0.274 µM |  |
| Cc1c(C(=O)N2CCC(NC(=O)Nc3ccc(N(C)C)cc3)(c3ccccc3)CC2)nn(-c2ccc(Cl)cc2Cl)c1-c1ccc(Cl)cc1 [Compound 17e, 3-(1-{[5-(4-Chlorophenyl)-1-(2,4-dichlorophenyl)-4-methyl-1H-pyrazol-3-yl]carbonyl}-4-phenylpiperidin-4-yl)-1-[4-(dimethylamino)phenyl]urea] | 0.264 µM |  |
| Cc1c(C(=O)NC2CCN(C(=O)NC(C)(C)C)CC2)nn(-c2ccc(Cl)cc2Cl)c1-c1ccc(Cl)cc1 [Compound 18f, 1-N-tert-Butyl-4-C-5-(4-chlorophenyl)-1-(2,4-dichlorophenyl)-4-methyl-1H-pyrazole-3-piperidine-1,4-diamido] |  | bioavailable with oral or intra-peritoneal dosing [2]: bioavailable |
| CCNC(=O)N1CCC[C@H](NC(=O)c2nn(-c3ccc(Cl)cc3Cl)c(-c3ccc(Cl)cc3)c2C)C1 [Compound 19e, (3S)-3-C-5-(4-Chlorophenyl)-1-(2,4-dichlorophenyl)-4-methyl-1H-pyrazole-3-1-N-ethylpiperidine-1,3-diamido] | 0.28 µM |  |
| CCNC(=O)N1CCC[C@@H](NC(=O)c2nn(-c3ccc(Cl)cc3Cl)c(-c3ccc(Cl)cc3)c2C)C1 [Compound 20e, (3R)-3-C-5-(4-Chlorophenyl)-1-(2,4-dichlorophenyl)-4-methyl-1H-pyrazole-3-1-N-ethylpiperidine-1,3-diamido] | 0.171 µM |  |
| CCNC(=O)NCC1CCC(CNC(=O)c2nn(-c3ccc(Cl)cc3Cl)c(-c3ccc(Cl)cc3)c2C)CC1 (stereo not drawn) [Compound 21a, 5-(4-Chlorophenyl)-1-(2,4-dichlorophenyl)-N-[(4-{[(ethylcarbamoyl)amino]methyl}cyclohexyl)methyl]-4-methyl-1H-pyrazole-3-carboxamide] | 0.135 µM |  |
| Cc1c(C(=O)N[C@H]2CCCN(S(C)(=O)=O)C2)nn(-c2ccc(Cl)cc2Cl)c1-c1ccc(Cl)cc1 [Compound 19d, 5-(4-Chlorophenyl)-1-(2,4-dichlorophenyl)-N-[(3S)-1-methanesulfonylpiperidin-3-yl]-4-methyl-1H-pyrazole-3-carboxamide] | 0.062 µM | selectivity for CB1 versus CB2 [3]: over 100 fold |
| Cc1c(C(=O)N[C@H]2CCCN(C(=O)NC(C)(C)C)C2)nn(-c2ccc(Cl)cc2Cl)c1-c1ccc(Cl)cc1 [Compound 19i, (3S)-1-N-tert-Butyl-3-C-5-(4-chlorophenyl)-1-(2,4-dichlorophenyl)-4-methyl-1H-pyrazole-3-piperidine-1,3-diamido] | 0.206 µM |  |
| Cc1c(C(=O)N2CCC(NC(=O)NCc3ccccc3)(c3ccccc3)CC2)nn(-c2ccc(Cl)cc2Cl)c1-c1ccc(Cl)cc1 [Compound 17b, 1-Benzyl-3-(1-{[5-(4-chlorophenyl)-1-(2,4-dichlorophenyl)-4-methyl-1H-pyrazol-3-yl]carbonyl}-4-phenylpiperidin-4-yl)urea] |  | Ke (nM) CB1 ([1]; apparent dissociation affinity constant, rightward shift of CP55940 curve): 2.09 nM |
| Cc1c(C(=O)N[C@H]2CCCNC2)nn(-c2ccc(Cl)cc2Cl)c1-c1ccc(Cl)cc1 [Compound 19b, 5-(4-Chlorophenyl)-1-(2,4-dichlorophenyl)-4-methyl-N-[(3S)-piperidin-3-yl]-1H-pyrazole-3-carboxamide] | 1.88 µM |  |

Reference: article PMC3319116 (Journal of Medicinal Chemistry, 2012)
